Test results reported in patent publication US20250289787A1, “HERBICIDAL 2-OXO-NICOTINIC ACID DERIVATIVES” (SYNGENTA CROP PROTECTION AG, priority 2022, published 2025).

Assays:
Format in all cases: in vivo
Parameters in all cases: key: 5=81-100%; 4=61-80%; 3=41-60%; 2=21-40%; 1=1-20%; 0=no damage to the plant; -=not tested
[1] = test system: Ipomoea hederacea (IPOHE); experiment: Pre-emergence test, herbicidal damage; details: 1000 g/ha unless otherwise stated, evaluated after 13 days, five-point scale
[2] = test system: Echinochloa crus-galli (ECHCG); experiment: Post-emergence test, herbicidal damage; details: sprayed after 8 days cultivation, 1000 g/ha unless otherwise stated, evaluated after 13 days, five-point scale
Method in brief: (§1)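 Herbicidal effect is expressed as a score from 0 (no damage) to 5 (81–100% damage), assessed 13 days after spraying. Compound at 1000 g/ha in acetone/water with 0.5% Tween 20 is applied to pots kept at 24 °C/16 °C, 14 h photoperiod.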

[3] = test system: Amaranthus palmeri (AMAPA); experiment: Post-emergence test, herbicidal damage; details: sprayed after 8 days cultivation, 1000 g/ha unless otherwise stated, evaluated after 13 days, five-point scale
Method in brief: as §1

[4] = test system: Amaranthus retoflexus (AMARE); experiment: Post-emergence test, herbicidal damage; details: sprayed after 8 days cultivation, 1000 g/ha unless otherwise stated, evaluated after 13 days, five-point scale
Method in brief: as §1

Zea mays (ZEAMX) [5] = experiment: Post-emergence test, herbicidal damage; details: sprayed after 8 days cultivation, 1000 g/ha unless otherwise stated, evaluated after 13 days, five-point scale
Method in brief: as §1

[6] = test system: Ipomoea hederacea (IPOHE); experiment: Post-emergence test, herbicidal damage; details: sprayed after 8 days cultivation, 1000 g/ha unless otherwise stated, evaluated after 13 days, five-point scale
Method in brief: as §1

Setaria faberi (SETFA) [7] = experiment: Post-emergence test, herbicidal damage; details: sprayed after 8 days cultivation, 1000 g/ha unless otherwise stated, evaluated after 13 days, five-point scale
Method in brief: as §1

Setaria faberi (SETFA) [8] = experiment: Pre-emergence test, herbicidal damage; details: 1000 g/ha unless otherwise stated, evaluated after 13 days, five-point scale
[9] = test system: Amaranthus retoflexus (AMARE); experiment: Pre-emergence test, herbicidal damage; details: 1000 g/ha unless otherwise stated, evaluated after 13 days, five-point scale
[10] = test system: Amaranthus palmeri (AMAPA); experiment: Pre-emergence test, herbicidal damage; details: 1000 g/ha unless otherwise stated, evaluated after 13 days, five-point scale
[11] = test system: Echinochloa crus-galli (ECHCG); experiment: Pre-emergence test, herbicidal damage; details: 1000 g/ha unless otherwise stated, evaluated after 13 days, five-point scale
Zea mays (ZEAMX) [12] = experiment: Pre-emergence test, herbicidal damage; details: 1000 g/ha unless otherwise stated, evaluated after 13 days, five-point scale

Row | SMILES | percentage damage caused to the plant, IPOHE [1] | percentage damage caused to the plant, ECHCG [2] | percentage damage caused to the plant, AMAPA [3] | percentage damage caused to the plant, AMARE [4] | percentage damage caused to the plant, ZEAMX (Zea mays (ZEAMX) [5]) | percentage damage caused to the plant, IPOHE [6] | percentage damage caused to the plant, SEFTA (Setaria faberi (SETFA) [7]) | percentage damage caused to the plant, SEFTA (Setaria faberi (SETFA) [8]) | percentage damage caused to the plant, AMARE [9] | percentage damage caused to the plant, AMAPA [10] | percentage damage caused to the plant, ECHCG [11] | percentage damage caused to the plant, ZEAMX (Zea mays (ZEAMX) [12])
1 | COCc1c(-c2ccc(Cl)c(Cl)c2)c(C(=O)O)c(=O)n(-c2ccc(F)cc2F)c1C [Compound 36, 4-(3,4-dichlorophenyl)-1-(2,4-difluorophenyl)-5-(methoxymethyl)-6-methyl-2-oxo-pyridine-3-carboxylic acid] | 1 (1=1-20%) | 0 | 2 (2=21-40%) | 2 (2=21-40%) | 0 | 1 (1=1-20%) | 1 (1=1-20%) | 0 | 2 (2=21-40%) | 2 (2=21-40%) | 1 (1=1-20%) | 0
2 | Cc1c(C2CC2)c(-c2ccc(Cl)c(Cl)c2)c(C(=O)O)c(=O)n1-c1ccc(F)cc1F [Compound 37, 5-cyclopropyl-4-(3,4-dichlorophenyl)-1-(2,4-difluorophenyl)-6-methyl-2-oxo-pyridine-3-carboxylic acid] | 1 (1=1-20%) | 1 (1=1-20%) | 4 (4=61-80%) | 3 (3=41-60%) | 1 (1=1-20%) | 2 (2=21-40%) | 1 (1=1-20%) | 1 (1=1-20%) | 3 (3=41-60%) | 4 (4=61-80%) | 2 (2=21-40%) | 1 (1=1-20%)
3 | C=Cc1c(-c2ccc(Cl)c(Cl)c2)c(C(=O)O)c(=O)n(-c2ccc(F)cc2F)c1C [Compound 38, 4-(3,4-dichlorophenyl)-1-(2,4-difluorophenyl)-6-methyl-2-oxo-5-vinyl-pyridine-3-carboxylic acid] | 0 | 0 | 1 (1=1-20%) | 1 (1=1-20%) | 0 | 2 (2=21-40%) | 0 | 0 | 1 (1=1-20%) | 1 (1=1-20%) | 2 (2=21-40%) | 0
4 | Cc1c(C2CC2)c(-c2ccc(Cl)c(Cl)c2)c(C(=O)O)c(=O)n1Cc1ccc(Cl)cc1F [Compound 39, 1-[(4-chloro-2-fluoro-phenyl)methyl]-5-cyclopropyl-4-(3,4-dichlorophenyl)-6-methyl-2-oxo-pyridine-3-carboxylic acid] | 1 (1=1-20%) | 2 (2=21-40%) | 1 (1=1-20%) | 0 | 1 (1=1-20%) | 2 (2=21-40%) | 1 (1=1-20%) | 2 (2=21-40%) | 0 | 1 (1=1-20%) | 2 (2=21-40%) | 1 (1=1-20%)
5 | CC#Cc1c(-c2ccc(Cl)c(Cl)c2)c(C(=O)O)c(=O)n(-c2cc(F)cc(Cl)c2)c1C [Compound 40, 1-(3-chloro-5-fluoro-phenyl)-4-(3,4-dichlorophenyl)-6-methyl-2-oxo-5-prop-1-ynyl-pyridine-3-carboxylic acid] | 0 | 0 | 0 | 0 | 0 | 0 | 0 | 0 | 0 | 0 | 0 | 0
6 | Cc1c(O)c(-c2ccc(Cl)c(Cl)c2)c(C(=O)O)c(=O)n1-c1ccc(Cl)cc1F [Compound 42, 1-(4-chloro-2-fluoro-phenyl)-4-(3,4-dichlorophenyl)-5-hydroxy-6-methyl-2-oxo-pyridine-3-carboxylic acid] | 0 | 0 | 2 (2=21-40%) | 2 (2=21-40%) | 0 | 1 (1=1-20%) | 0 | 0 | 2 (2=21-40%) | 2 (2=21-40%) | 1 (1=1-20%) | 0
